Among the data in patent publication US20250195475A1, “CDK2 INHIBITOR AND PREPARATION METHOD AND USE THEREOF” (INVENTISBIO CO., LTD., priority 2022, published 2025) are IC50 values, retold here.

For one assay, the target named is CDK2/CyclinE1 (Homo sapiens (Human), UniProt P24941). In words: CDK2 kinase assay (TR-FRET). Format: biochemical. The settings on record: CDK2/CyclinE1 0.5 nM, ATP 50 μM. An outline of the steps:
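Compounds were preincubated 10 min at room temperature with enzyme in 50 mM HEPES pH 7.5, 10 mM MgCl2, 1 mM EGTA, 2 mM DTT, 0.01% Tween-20, BSA. Substrate reaction ran 30 min at 25 °C, was stopped with EDTA and read by LANCE TR-FRET (ex 320/em 665 nm) after 1 h. IC50 came from a four-parameter fit of % inhibition.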
On the technique in general: Time-resolved FRET reads energy transfer from a long-lived donor to a nearby acceptor.

The next assay relates to OVCAR3 cancer cells. In words: OVCAR3 proliferation assay (CellTiter-Glo). Format: cell-based. The settings on record: Homo sapiens, OVCAR-3, 144 h, 6 days incubation, read-out: OVCAR3 CTG IC50. As for the experimental part: The OVCAR3 cancer cells were cultured at temperature 37° C., 5% CO2 incubator. The cells were routinely subcultured. The cells growing in an exponential growth phase were harvested and counted for plating. Plate 100 μL of cell suspension into the assay plates. Incubate the assay plates at 37° C., 5% CO2, 95% air and 100% relative humidity overnight. The compounds to be tested were dissolved in dimethyl sulfoxide and prepared with a stock concentration of 10 mM. Serially dilute the stock solution from highest concentration down to lowest in DMSO to make the compound stock plate (200× stock plates). Add 0.5 μL of the 200× compound of each well into the cells in assay plates. The final DMSO concentration was 0.5%. Return the assay plate into incubator and incubate for 6 days. The procedures were performed according to the Promega CellTiter-Glo Luminescent Cell Viability Assay Kit to detect cell viability.
Inhibition rate (IR) of the tested compounds was determined by the following formula: IR (%)=(average High control−compound well)/(average High control−average Low control)*100%. Fit the compound IC50 from non-linear regression equation: Y=Bottom+(Top−Bottom)/(1+10^((Log IC50−X)*HillSlope)). X: Log of cpd concentration; Y: Inhibition rate (IR); Top and Bottom: Plateaus in same units as Y; log IC50: same log units as X; HillSlope: Slope factor or Hill slope.
In general terms: In ATP-based viability assays light output follows the ATP content of the culture.

Another assay addresses CDK6/CyclinD3 (Homo sapiens (Human), UniProt Q00534). Description: CDK6 kinase assay (TR-FRET). It is filed as biochemical. The settings on record: CDK6/CyclinD3 0.50 nM, ATP 140 μM. Here is the method: (§1) The purpose of these assays is to evaluate the inhibition of small molecule inhibitors by using TR-FRET assay.
(§2) Compound Preparation. Dissslove the compounds into DMSO solution to make 10 mM DMSO stock. Serially dilute the stock solution from highest concentration down to lowest in DMSO to make the compound stock plate (100× stock plates). To make 5× compound intermediate plate, add 38 μL of assay buffer (50 mM HEPES, pH 7.5, 0.05 mg/mL BSA, 10 mM MgCl2, 1 mM EGTA, 0.01% Tween-20, 2 mM DTT) into each well of the V-bottom plate; then transfer 2 μL of the stock compound solution of each concentration from the compound stock plate (100× stock), and mix well.
(§3) Enzyme reaction. Transfer 2 μL compound from 5× intermediate plate into assay plate, then add 4 μL/well 2.5× Enzyme mix to assay plate, incubation for 10 min at room temperature. For positive control wells, add 4 μL/well assay buffer instead of Enzyme mix. Then add 4 μL/well 2.5× Substrate mix to assay plate, and incubation at 25° C. for 30 min at room temperature. After reaction, 10 μL 2× Detection mix (final 15 mM EDTA, 1× LANCE Detection Buffer, 0.5 nM Detection antibody) was added and incubated for 1 h prior to detection with excitation and emission at 320 and 665 nm (Tecan Spark® TR-FRET mode Tecan).
(§4) Inhibition rate (IR) of the tested compounds was determined by the following formula: IR (%)=(average High control−compound well)/(average High control−average Low control)*100%. Fit the compound IC50 from non-linear regression equation: Y=Bottom+(Top−Bottom)/(1+10^((Log IC50−X)*HillSlope)). X: Log of cpd concentration; Y: Inhibition rate (TR); Top and Bottom: Plateaus in same units as Y, log IC50: same log units as X; HillSlope: Slope factor or Hill slope.

For another assay, the target named is GSK3β (Homo sapiens (Human), UniProt P49841). In words: GSK3β kinase assay (TR-FRET). It is filed as biochemical. As to conditions: GSK3β 1.0 nM, ATP 8.0 μM. As for the experimental part:
as §1, §2, §3, §4

The target of a further assay is CDK4/CyclinD1 (Homo sapiens (Human), UniProt P11802). In words: CDK4 kinase assay (TR-FRET). It is filed as biochemical. As to conditions: CDK4/CyclinD1 0.50 nM, ATP 225 μM. Here is the method: as §1, §2, §3, §4
CDK4/CyclinD1, sequence (P11802 whole entry): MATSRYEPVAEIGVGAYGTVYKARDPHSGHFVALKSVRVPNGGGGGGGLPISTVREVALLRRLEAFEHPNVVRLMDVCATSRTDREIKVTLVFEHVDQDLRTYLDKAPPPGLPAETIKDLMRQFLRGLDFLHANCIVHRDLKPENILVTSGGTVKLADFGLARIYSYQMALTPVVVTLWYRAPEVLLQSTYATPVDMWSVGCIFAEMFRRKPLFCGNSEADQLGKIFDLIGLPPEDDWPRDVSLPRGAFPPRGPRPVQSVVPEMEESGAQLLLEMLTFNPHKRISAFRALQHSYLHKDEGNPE
CDK4/CyclinD1, sequence (P24385 whole entry partner): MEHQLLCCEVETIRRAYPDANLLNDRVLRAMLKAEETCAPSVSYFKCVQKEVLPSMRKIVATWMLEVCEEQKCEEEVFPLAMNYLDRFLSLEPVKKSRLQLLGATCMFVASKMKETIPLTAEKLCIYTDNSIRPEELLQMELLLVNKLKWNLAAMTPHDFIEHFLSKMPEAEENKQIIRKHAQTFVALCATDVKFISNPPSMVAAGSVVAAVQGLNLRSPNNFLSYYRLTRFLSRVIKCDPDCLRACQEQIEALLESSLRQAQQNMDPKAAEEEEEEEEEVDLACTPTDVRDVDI

GSK3β, sequence (P49841 whole entry): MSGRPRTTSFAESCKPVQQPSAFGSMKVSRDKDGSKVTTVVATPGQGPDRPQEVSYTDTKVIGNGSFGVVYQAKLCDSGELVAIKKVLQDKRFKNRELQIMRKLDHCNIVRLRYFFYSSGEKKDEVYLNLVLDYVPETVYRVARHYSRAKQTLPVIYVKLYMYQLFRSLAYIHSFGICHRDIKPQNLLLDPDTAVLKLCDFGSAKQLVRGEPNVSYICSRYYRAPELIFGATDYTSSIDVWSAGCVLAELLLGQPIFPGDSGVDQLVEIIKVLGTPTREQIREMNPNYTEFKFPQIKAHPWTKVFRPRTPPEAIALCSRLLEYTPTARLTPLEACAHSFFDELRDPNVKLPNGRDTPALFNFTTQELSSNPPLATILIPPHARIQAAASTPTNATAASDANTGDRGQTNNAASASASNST
CDK6/CyclinD3, sequence (Q00534 whole entry): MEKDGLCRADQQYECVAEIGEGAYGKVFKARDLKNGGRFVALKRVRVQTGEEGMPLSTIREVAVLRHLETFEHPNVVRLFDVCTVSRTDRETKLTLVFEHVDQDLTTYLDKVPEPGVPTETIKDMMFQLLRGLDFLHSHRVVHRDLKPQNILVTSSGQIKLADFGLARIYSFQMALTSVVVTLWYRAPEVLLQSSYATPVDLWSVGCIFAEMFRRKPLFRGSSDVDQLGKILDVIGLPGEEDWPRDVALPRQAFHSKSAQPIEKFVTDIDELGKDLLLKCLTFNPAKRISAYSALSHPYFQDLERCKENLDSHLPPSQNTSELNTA
CDK6/CyclinD3, sequence (P30281 whole entry partner): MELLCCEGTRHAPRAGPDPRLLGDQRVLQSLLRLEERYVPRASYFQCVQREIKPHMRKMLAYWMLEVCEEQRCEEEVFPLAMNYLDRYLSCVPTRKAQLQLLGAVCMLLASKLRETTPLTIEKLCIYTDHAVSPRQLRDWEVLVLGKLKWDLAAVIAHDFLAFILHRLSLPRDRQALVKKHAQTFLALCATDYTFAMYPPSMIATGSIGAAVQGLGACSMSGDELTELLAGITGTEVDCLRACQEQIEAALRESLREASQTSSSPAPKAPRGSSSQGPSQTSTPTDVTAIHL

With `CC(C)(C)NC(=O)O[C@@H]1CC[C@H](c2cc(NC(=O)[C@@H]3CCN(S(C)(=O)=O)C3)n[nH]2)C1` [Compound 84], the IC50 is 1.6 nM against CDK2/CyclinE1 and 74 nM in the assay with OVCAR3 cancer cells.
For the molecule `C#C[C@H]1C[C@@H]1C(=O)Nc1cc([C@H]2CC[C@@H](OC(=O)NC(C)C)C2)[nH]n1` [Compound 41], the IC50 against CDK2/CyclinE1 was found to be 0.9 nM; at CDK6/CyclinD3 it was 254 nM; with OVCAR3 cancer cells it was 193 nM; on GSK3β, 572 nM; on CDK4/CyclinD1, 306 nM.
For `CC(C)NC(=O)O[C@@H]1CC[C@H](c2cc(NC(=O)C34CC(C#N)(C3)C4)n[nH]2)C1` [Compound 109], the IC50 was 0.9 nM against CDK2/CyclinE1 and 237 nM in the assay on OVCAR3 cancer cells.

Broadly, the IC50 is the concentration needed to halve the response being measured.
